Data on 2 compounds can be found in US20210251267A1, “LIGUSTROSIDIC ACID AND DERIVATIVES THEREOF FOR SWEETNESS ENHANCEMENT” (International Flavors & Fragrances Inc., priority 2018, published 2021).

Common to all, as to parameters: species or system human
Test [1] in a line: Enhancement of sucrose sweetness (flavor profile of sucrose solution with added substance). As to conditions: sucrose solution (4%), all levels tested. An excerpt:
(§1) The term “sweetness” or “sweetness intensity” is understood to mean the relative strength of sweet sensation as observed or experienced by an individual, e.g., a human, or a degree or amount of sweetness detected by a taster, for example on the scale from 0 (none) to 8 (very strong) used in sensory evaluations according to the procedure described in American Society for Testing Materials, Special Technical Publication-434: “Manual on Sensory Testing Methods,” ASTM International, West Conshohocken, Pa. (1996).
(§2) A sucrose solution (4%) was prepared in water. Each of ligustrosidic acid and 2′-hydroxy ligustrosidic acid solutions of different concentrations was prepared in ethanol solution in water (50%). Ligustrosidic acid and 2′-hydroxy ligustrosidic acid were evaluated at 1 and 200 ppm, respectively.
The flavor profile of the sucrose solution with added ligustrosidic acid and 2′-hydroxy ligustrosidic acid is reported in the following:
(§3) Solutions of sucrose (4%) and Luo Han Guo (120 ppm) were prepared as above (EXAMPLE II and III). In addition, solutions of fructose (3.4%), Reb A (GLG Life Tech Corporation, Canada) (90 ppm) and GSG (Glucosyl Steviol Glucosides, GLG Life Tech Corporation, Canada) (200 ppm) were also prepared in water.
The sucrose solution (4%) with the addition of various amount of Carica papaya leave extract was evaluated.

Test [2] can be described thus: Taste and smell of the compounds alone. How it is done:
as §2

Test [3] can be described thus: Enhancement of Luo Han Guo sweetness (flavor profile). Conditions: Luo Han Guo solution (120 ppm), all levels tested.
Source text: as §1
A Luo Han Guo (Biovittoria Ltd., New Zealand) solution was prepared in water (120 ppm). Ligustrosidic acid and 2′-hydroxy ligustrosidic acid solutions were prepared as above (EXAMPLE II). The flavor profile of the Luo Han Guo solution with added ligustrosidic acid and 2′-hydroxy ligustrosidic acid is reported in the following:
as §3
The Luo Han Guo solution (120 ppm) with the addition of various amount of Carica papaya leave extract was evaluated.

In the case of `COC(=O)C1=COC(OC2OC(CO)C(O)C(O)C2O)C(=CC(=O)O)C1CC(=O)OCCc1ccc(O)cc1` (stereo in doubt) [Ligustrosidic Acid, [3-(carboxymethylene)-2-(β-D-glucopyranosyloxy)-3,4-dihydro-5-(methoxycarbonyl)]-2H-pyran-4-acetic acid-α-[2-(4-hydroxyphenyl)ethyl]ester], the “Overall effect on sucrose sweetness (summary in words)” value is “particularly strong effect” in test [1] (listed as Ligustrosidic acid); “enhanced overall sweetness, body and mouthfeel” in test [1] (listed as ligustrosidic acid). Besides, the “Taste and smell of the compound alone” value in test [2] (evaluated at 1 ppm) is “devoid of taste and smell”. For the same compound, the “Overall effect on Luo Han Guo sweetness (summary in words)” value is “particularly strong effect” in test [3] (listed as Ligustrosidic acid); “enhanced overall sweetness, body and mouthfeel” in test [3] (listed as ligustrosidic acid).

Turning to `COC(=O)C1=COC(OC2OC(CO)C(O)C(O)C2O)/C(=C\C(=O)O)C1CC(=O)OCCc1ccc(O)c(O)c1` (centres unmarked) [2′-Hydroxy Ligustrosidic Acid, 2′-hydroxy ligustrosidic acid], the “Overall effect on sucrose sweetness (summary in words)” value in test [1] is reported as “strong effect in sweetness enhancement”. For the same compound, the “Taste and smell of the compound alone” value in test [2] (evaluated at 200 ppm) is “devoid of taste and smell”. The “Overall effect on Luo Han Guo sweetness (summary in words)” value in test [3] is listed as “strong effect in sweetness enhancement”.
